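GI50 is the concentration that inhibits growth by half. At the TGI there is no net growth.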
Legend:
Assay in all cases: growth of human tumour cells (NCI), 384-well format
NCI-H322M lung = test system: NCI-H322M lung
NCI-H460 NSCLC = test system: NCI-H460 NSCLC
NCI-H522 lung = test system: NCI-H522 lung
NCI/ADR-RES ovarian = test system: NCI/ADR-RES ovarian
OVCAR-3 ovarian = test system: OVCAR-3 ovarian
OVCAR-4 ovarian = test system: OVCAR-4 ovarian
OVCAR-5 ovarian = test system: OVCAR-5 ovarian
OVCAR-8 ovarian = test system: OVCAR-8 ovarian
PC-3 prostate = test system: PC-3 prostate
RPMI-8226 leukemia = test system: RPMI-8226 leukemia
RXF 393 renal = test system: RXF 393 renal
SF-268 CNS = test system: SF-268 CNS
SF-295 CNS = test system: SF-295 CNS
SF-539 CNS = test system: SF-539 CNS
SK-MEL-2 melanoma = test system: SK-MEL-2 melanoma
SK-MEL-28 melanoma = test system: SK-MEL-28 melanoma
SK-MEL-5 melanoma = test system: SK-MEL-5 melanoma
SK-OV-3 ovarian = test system: SK-OV-3 ovarian
SN12C renal = test system: SN12C renal
SNB-19 CNS = test system: SNB-19 CNS
SNB-75 CNS = test system: SNB-75 CNS
SR leukemia = test system: SR leukemia
SW-620 colon = test system: SW-620 colon
T-47D breast = test system: T-47D breast
TK-10 renal = test system: TK-10 renal
U251 glioblastoma = test system: U251 glioblastoma
UACC-257 melanoma = test system: UACC-257 melanoma
UACC-62 melanoma = test system: UACC-62 melanoma

With CC1(C)CCC2=C(O1)c1ccccc1C(=O)C2=O the GI50 (NCI-H322M lung) was 2.51 µM, the TGI (NCI-H322M lung) was 5.8 µM and the GI50 (NCI-H460 NSCLC) was 1.9 µM. It also gave a TGI (NCI-H460 NSCLC) of 3.5 µM, a GI50 (NCI-H522 lung) of 1.84 µM and a TGI (NCI-H522 lung) of 3.24 µM. For the same compound, the GI50 (NCI/ADR-RES ovarian) was 2.08 µM, the TGI (NCI/ADR-RES ovarian) was 3.74 µM and the GI50 (OVCAR-3 ovarian) was 1.79 µM. The TGI (OVCAR-3 ovarian) was 3.22 µM, the GI50 (OVCAR-4 ovarian) was 2 µM and the TGI (OVCAR-4 ovarian) was 3.43 µM. The GI50 (OVCAR-5 ovarian) was 1.62 µM, the TGI (OVCAR-5 ovarian) was 2.99 µM and the GI50 (OVCAR-8 ovarian) was 1.98 µM. It also gave a TGI (OVCAR-8 ovarian) of 3.72 µM, a GI50 (PC-3 prostate) of 2.14 µM and a TGI (PC-3 prostate) of 4.98 µM. It also gave a GI50 (RPMI-8226 leukemia) of 1.82 µM, a TGI (RPMI-8226 leukemia) of 3.23 µM and a GI50 (RXF 393 renal) of 1.93 µM. It also gave a TGI (RXF 393 renal) of 3.35 µM, a GI50 (SF-268 CNS) of 1.97 µM and a TGI (SF-268 CNS) of 3.49 µM. For the same compound, the GI50 (SF-295 CNS) was 1.48 µM, the TGI (SF-295 CNS) was 2.91 µM and the GI50 (SF-539 CNS) was 1.89 µM. For the same compound, the TGI (SF-539 CNS) was 3.31 µM, the GI50 (SK-MEL-2 melanoma) was 3.02 µM and the TGI (SK-MEL-2 melanoma) was 4.53 µM. It also gave a GI50 (SK-MEL-28 melanoma) of 2.48 µM, a TGI (SK-MEL-28 melanoma) of 3.96 µM and a GI50 (SK-MEL-5 melanoma) of 1.75 µM. It also gave a TGI (SK-MEL-5 melanoma) of 3.14 µM, a GI50 (SK-OV-3 ovarian) of 1.75 µM and a TGI (SK-OV-3 ovarian) of 3.28 µM. It also gave a GI50 (SN12C renal) of 1.61 µM, a TGI (SN12C renal) of 2.98 µM and a GI50 (SNB-19 CNS) of 1.88 µM. It also gave a TGI (SNB-19 CNS) of 3.43 µM, a GI50 (SNB-75 CNS) of 0.95 µM and a TGI (SNB-75 CNS) of 2.14 µM. The GI50 (SR leukemia) was 1.89 µM, the TGI (SR leukemia) was 3.32 µM and the GI50 (SW-620 colon) was 1.79 µM. The TGI (SW-620 colon) was 3.2 µM, the GI50 (T-47D breast) was 1.36 µM and the TGI (T-47D breast) was 2.66 µM. It also gave a GI50 (TK-10 renal) of 3.37 µM, a TGI (TK-10 renal) of 10.6 µM and a GI50 (U251 glioblastoma) of 2.01 µM. The TGI (U251 glioblastoma) was 3.63 µM, the GI50 (UACC-257 melanoma) was 1.67 µM and the TGI (UACC-257 melanoma) was 3.05 µM. It also gave a GI50 (UACC-62 melanoma) of 1.97 µM and a TGI (UACC-62 melanoma) of 3.4 µM.

From PubChem BioAssay (NCI)
